Data: patent publication US11724980B2, “Quinones having high capacity retention for use as electrolytes in aqueous redox flow batteries” (President and Fellows of Harvard College, priority 2018, dated 2023)
Several values for one entry are separate records, joined by “and”; a condition that tells them apart may be missing. Identical values can stand only once.

Experiment: Cyclic voltammetry on glassy carbon electrode
Assay type: physicochemical
Experimental: Glassy carbon was used as the working electrode for all three-electrode CV tests. RDE experiments were conducted using a Pine Instruments Modulated Speed Rotator AFMSRCE equipped with a 5 mm diameter glassy carbon working electrode, a Ag/AgCl reference electrode (BASi, pre-soaked in 3 M NaCl solution), and a graphite counter electrode. The electrode was rotated at a specific speed while the voltage was linearly swept from −0.4 to −0.11 V vs. Ag/AgCl (FIG. 4A). […].
A second CV experiment was performed in which 2,6-DBEAQ was dissolved in pH 14 KOH solution at a concentration of 2 mM. CV measurements were plotted in FIG. 4C. The standard equilibrium potential was determined to be −0.49 V vs. SHE. The separation between the peaks in the CV curves was 42 mV, indicating fairly rapid and reversible electrochemical reactions at the surface of the electrodes.

O=C([O-])CCCOc1ccc2c(c1)C(=O)c1ccc(OCCCC(=O)[O-])cc1C2=O.[K+].[K+] [2,6-DBEAQ, 4,4′-((9,10-anthraquinone-2,6-diyl)dioxy)dibutyric acid]
redox potential higher than that of 2,6-DHAQ: ~200 mV | pH above which the potential is pH-independent (Pourbaix diagram): 11.5 and ~11.5 | Pourbaix diagram slope (fit to data below pH 12): −35 mV/pH | separation between the peaks in the CV curves (pH 14 KOH, 2 mM): 42 mV | standard equilibrium potential (pH 14 KOH, 2 mM): −0.49 V vs. SHE
